From patent US11040028B2, “Penicinotam derivative, preparation method and use thereof” (OCEAN UNIVERSITY OF CHINA, priority 2017, dated 2021)

Key:
Type in all cases: cell-based
BHK-21 cells = experiment: Anti-fibrosis activity test: inhibition of BHK-21 cell proliferation (CCK-8); conditions: Mesocricetus auratus, BHK-21, 48 h
How it was run: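 Each concentration was tested in triplicate on adhered BHK-21 cells for 48 h, with pirfenidone as reference. A 2 h CCK-8 incubation preceded absorbance reading at 450 nm, and IC50 was obtained from percent inhibition versus blank.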

[1] = tested on: human lung fibroblasts HFL1; experiment: Anti-fibrosis activity test: inhibition of proliferation of human lung fibroblasts HFL1 (CCK-8); conditions: Homo sapiens, HFL1, 48 h
How it was run: (§1)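 Proliferation read by CCK-8 (2 h, A450) after 48 h compound treatment of cells plated at 2×10^4 cells/mL and allowed 24 h attachment, triplicate per concentration. Inhibition rate derived from absorbance relative to untreated blank, with IC50 fitted; pirfenidone as positive control.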

[2] = tested on: human embryonic lung fibroblast IMR-90; experiment: Anti-fibrosis activity test: inhibition of proliferation of human embryonic lung fibroblast IMR-90 (CCK-8)
How it was run: as §1

[3] = tested on: human hepatic stellate cells LX-2; experiment: Anti-fibrosis activity test: inhibition of proliferation of human hepatic stellate cells LX-2 (CCK-8); conditions: Homo sapiens, 48 h
How it was run: as §1

[4] = tested on: cardiac fibroblast RAT-iCell-C002; experiment: Anti-fibrosis activity test: inhibition of proliferation of cardiac fibroblast RAT-iCell-C002 (CCK-8); conditions: Cardiac fibroblast, 48 h
How it was run: as §1

[5] = tested on: mouse macrophages (RAW264.7); experiment: Lipopolysaccharide-induced NO secretion in macrophages (Griess); conditions: Mus musculus, RAW264.7, 24 h, RAW264.7, LPS 1 μg/ml, a/b isomers given as first/second symbol, read-out: IC50 (μM), inhibition of lipopolysaccharide-induced NO secretion in macrophages
How it was run: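 Percent inhibition of NO release was measured by Griess absorbance at 548 nm in supernatants. Cells were mouse RAW264.7 macrophages in 10% FBS DMEM, treated with graded compound concentrations and activated by LPS (1 μg/ml) for 24 h.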

NF-κB = experiment: Immunological activity test: inhibition of NF-κB activity; conditions: initial concentration of 30 μM; a/b isomers given as first/second symbol; read-out: IC50 (μM), inhibitory activity against NF-κB
How it was run: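 IC50 values were derived after initial screening of compounds at 30 μM for NF-κB inhibitory activity, with parthenolide serving as the positive control.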

[6] = tested on: human fibrosarcoma cells HT-1080; experiment: Anti-fibrosis activity test: inhibition of proliferation of human fibrosarcoma cells HT-1080 (CCK-8); conditions: Homo sapiens, HT-1080, 48 h
How it was run: as §1

[7] = tested on: human dermal fibroblasts CCC-ESF-1; experiment: Anti-fibrosis activity test: inhibition of proliferation of human dermal fibroblasts CCC-ESF-1 (CCK-8); conditions: Fibroblast
How it was run: as §1

[8] = CCK-8, 48 hours after administration
[9] = human lung fibroblasts HFL1, CCK-8, 48 hours
[10] = human embryonic lung fibroblast IMR-90, CCK-8, 48 hours
[11] = human hepatic stellate cells LX-2, CCK-8, 48 hours
[12] = cardiac fibroblast RAT-iCell-C002, CCK-8, 48 hours
[13] = human fibrosarcoma cells HT-1080, CCK-8, 48 hours
[14] = human dermal fibroblasts CCC-ESF-1, CCK-8, 48 hours

Row | IC50 [5] [µM] | IC50 (NF-κB) [µM] | IC50 [6, 13] [mM] | IC50 ([6]; HT-1080 cells, 48 h, CCK-8) [mM] | SMILES | IC50 (BHK-21 cells; [8]) [mM] | IC50 [1, 9] [mM] | IC50 [2, 10] [mM] | IC50 [3, 11] [mM] | IC50 [4, 12] [mM] | IC50 [7, 14] [mM] | IC50 (BHK-21 cells; 48 h, CCK-8) [mM] | IC50 ([1]; HFL1 cells, 48 h, CCK-8) [mM] | IC50 ([2]; Homo sapiens, IMR-90 cells, 48 h, CCK-8) [mM] | IC50 ([3]; LX-2, 48 h, LX-2 cells, CCK-8) [mM] | IC50 ([4]; RAT-iCell-C002 cells, CCK-8) [mM] | IC50 ([7]; Homo sapiens, CCC-ESF-1 cells, 48 h, CCK-8) [mM]
1 | 1 to 10 | 1 to 10 | 0.05 to 5 |  | O=C(O)c1ccccc1-c1ccc(COc2c3c(nc4ccccc24)-c2cccn2C3=O)cc1 [Compound 81b, 4′-(((10-oxo-10H-pyrrolizino[1,2-b]quinolin-9-yl)oxy)methyl)-[1,1′-biphenyl]-2-carboxylic acid] | 0.05 to 5 | 0.05 to 5 | 0.05 to 5 | < 0.05 | 0.05 to 5 | 0.05 to 5 |  |  |  |  |  | 
2 | 1 to 10 | 1 to 10 | 0.05 to 5 |  | N#Cc1cccc(COc2c3c(nc4ccccc24)-c2cccn2C3=O)c1 [Compound 597b, 3-(((10-oxo-10H-pyrrolizino[1,2-b]quinolin-9-yl)oxy)methyl)benzonitrile] | 0.05 to 5 | 0.05 to 5 | 0.05 to 5 | 0.05 to 5 | 0.05 to 5 | 0.05 to 5 |  |  |  |  |  | 
3 | 1 to 10 | 0.1 to 1 |  | 0.05 to 5 | O=C1c2c(n(CCCN3CCNCC3)c3ccccc3c2=O)-c2cccn21 [Compound 669a, 4-(3-(Piperazin-1-yl)propyl)-9H-pyrrolizino[1,2-b]quinoline-9,10(4H)-dione] |  |  |  |  |  |  | 0.05 to 5 | 0.05 to 5 | 0.05 to 5 | 0.05 to 5 | 0.05 to 5 | 0.05 to 5
4 | 1 to 10 | 1 to 10 | 0.05 to 5 |  | Cc1cccc(COc2c3c(nc4ccccc24)-c2cccn2C3=O)c1 [Compound 609b, 9-((3-methylbenzyl)oxy)-10H-pyrrolizino[1,2-b]quinolin-10-one] | 0.05 to 5 | 0.05 to 5 | 0.05 to 5 | 0.05 to 5 | 0.05 to 5 | 0.05 to 5 |  |  |  |  |  | 
5 | 1 to 10 | 1 to 10 | 0.05 to 5 |  | O=C1c2c(nc3ccccc3c2OCc2cc(F)c(F)cc2F)-c2cccn21 [Compound 585b, 9-((2,4,5-trifluorobenzyl)oxy)-10H-pyrrolizino[1,2-b]quinolin-10-one] | 0.05 to 5 | 0.05 to 5 | 0.05 to 5 | 0.05 to 5 | 0.05 to 5 | 0.05 to 5 |  |  |  |  |  | 
6 | 10 to 50 | 1 to 10 | 0.05 to 5 |  | N#Cc1ccccc1-c1ccc(COc2c3c(nc4ccccc24)-c2cccn2C3=O)cc1 [Compound 648b, 4′-(((10-oxo-10H-pyrrolizino[1,2-b]quinolin-9-yl)oxy)methyl)-[1,1′-biphenyl]-2-carbonitrile] | 0.05 to 5 | 0.05 to 5 | 0.05 to 5 | 0.05 to 5 | 0.05 to 5 | 0.05 to 5 |  |  |  |  |  | 
7 | 1 to 10 | 1 to 10 | 0.05 to 5 |  | O=C1c2c(n(CCc3ccccc3)c3ccc(F)cc3c2=O)-c2cccn21 [Compound 141a, 7-Fluoro-4-phenethyl-9H-pyrrolizino[1,2-b]quinoline-9,10(4H)-dione] | 0.05 to 5 | 0.05 to 5 | 0.05 to 5 | 0.05 to 5 | 0.05 to 5 | < 0.05 |  |  |  |  |  | 
8 | 1 to 10 | 10 to 50 | 0.05 to 5 |  | N#Cc1cccc2nc3c(c(O)c12)C(=O)n1cccc1-3 [Compound 476b, 9-hydroxy-10-oxo-10H-pyrrolizino[1,2-b]quinoline-8-carbonitrile] | 0.05 to 5 | 0.05 to 5 | 0.05 to 5 | 0.05 to 5 | 0.05 to 5 | 0.05 to 5 |  |  |  |  |  | 
9 | 0.1 to 1 | 1 to 10 | 0.05 to 5 |  | O=C1c2c(n(Cc3cc(C(F)(F)F)cc(C(F)(F)F)c3)c3ccccc3c2=O)-c2cccn21 [Compound 607a, 4-(3,5-Bis(trifluoromethyl)benzyl)-9H-pyrrolizino[1,2-b]quinoline-9,10(4H)-dione] | 0.05 to 5 | 0.05 to 5 | 0.05 to 5 | 0.05 to 5 | 0.05 to 5 | 0.05 to 5 |  |  |  |  |  | 
10 | 1 to 10 | 1 to 10 | 0.05 to 5 |  | O=C1c2c(n(Cc3ccc(F)c(Cl)c3)c3ccccc3c2=O)-c2cccn21 [Compound 603a, 4-(3-Chloro-4-fluorobenzyl)-9H-pyrrolizino[1,2-b]quinoline-9,10(4H)-dione] | < 0.05 | 0.05 to 5 | 0.05 to 5 | 0.05 to 5 | 0.05 to 5 | 0.05 to 5 |  |  |  |  |  | 
11 | 1 to 10 | 1 to 10 | 0.05 to 5 |  | O=C1c2c(n(Cc3cc(F)c(F)c(F)c3F)c3ccccc3c2=O)-c2cccn21 [Compound 587a, 4-(2,3,4,5-Tetrafluorobenzyl)-9H-pyrrolizino[1,2-b]quinoline-9,10(4H)-dione] | 0.05 to 5 | 0.05 to 5 | 0.05 to 5 | 0.05 to 5 | 0.05 to 5 | 0.05 to 5 |  |  |  |  |  | 
12 | 1 to 10 | 10 to 50 | 0.05 to 5 |  | N#Cc1ccc(F)cc1COc1c2c(nc3ccccc13)-c1cccn1C2=O [Compound 616b, 4-fluoro-2-(((10-oxo-10H-pyrrolizino[1,2-b]quinolin-9-yl)oxy)methyl)benzonitrile] | 0.05 to 5 | 0.05 to 5 | 0.05 to 5 | 0.05 to 5 | 0.05 to 5 | 0.05 to 5 |  |  |  |  |  | 
13 | 1 to 10 | 1 to 10 | 0.05 to 5 |  | O=C1c2c(nc3ccccc3c2OCc2ccccc2C(F)(F)F)-c2cccn21 [Compound 581b, 9-((2-(trifluoromethyl)benzyl)oxy)-10H-pyrrolizino[1,2-b]quinolin-10-one] | 0.05 to 5 | 0.05 to 5 | 0.05 to 5 | 0.05 to 5 | 0.05 to 5 | 0.05 to 5 |  |  |  |  |  | 
14 | 0.1 to 1 | 1 to 10 | 0.05 to 5 |  | O=C1c2c(n(Cc3cccc(F)c3)c3ccccc3c2=O)-c2cccn21 [Compound 595a, 4-(3-Fluorobenzyl)-9H-pyrrolizino[1,2-b]quinoline-9,10(4H)-dione] | 0.05 to 5 | 0.05 to 5 | 0.05 to 5 | 0.05 to 5 | 0.05 to 5 | < 0.05 |  |  |  |  |  | 
15 | 1 to 10 | 1 to 10 | 0.05 to 5 |  | CCOC(=O)/C=C/COc1c2c(nc3ccccc13)-c1cccn1C2=O [Compound 661b, ethyl (E)-4-((10-oxo-10H-pyrrolizino[1,2-b]quinolin-9-yl)oxy)but-2-enoate] | 0.05 to 5 | 0.05 to 5 | 0.05 to 5 | 0.05 to 5 | 0.05 to 5 | 0.05 to 5 |  |  |  |  |  | 
16 | 1 to 10 | 0.1 to 1 | < 0.05 |  | O=C1c2c(n(Cc3ccc(F)c(F)c3F)c3ccccc3c2=O)-c2cccn21 [Compound 584a, 4-(2,3,4-Trifluorobenzyl)-9H-pyrrolizino[1,2-b]quinoline-9,10(4H)-dione] | < 0.05 | 0.05 to 5 | 0.05 to 5 | 0.05 to 5 | 0.05 to 5 | 0.05 to 5 |  |  |  |  |  | 
17 | 1 to 10 | 0.1 to 1 | 0.05 to 5 |  | O=C1c2c(n(Cc3ccccc3F)c3ccccc3c2=O)-c2cccn21 [Compound 599a, 4-(2-Fluorobenzyl)-9H-pyrrolizino[1,2-b]quinoline-9,10(4H)-dione] | 0.05 to 5 | 0.05 to 5 | 0.05 to 5 | 0.05 to 5 | 0.05 to 5 | 0.05 to 5 |  |  |  |  |  | 
18 | 1 to 10 | 1 to 10 | 0.05 to 5 |  | O=C1c2c(nc3ccccc3c2OCc2ccc(I)cc2)-c2cccn21 [Compound 575b, 9-((4-iodobenzyl)oxy)-10H-pyrrolizino[1,2-b]quinolin-10-one] | 0.05 to 5 | 0.05 to 5 | 0.05 to 5 | 0.05 to 5 | 0.05 to 5 | 0.05 to 5 |  |  |  |  |  | 
19 | 0.1 to 1 | 1 to 10 | 0.05 to 5 |  | C#CCOc1c2c(nc3ccccc13)-c1cccn1C2=O [Compound 7b, 9-(prop-2-yn-1-yloxy)-10H-pyrrolizino[1,2-b]quinolin-10-one] | 0.05 to 5 | 0.05 to 5 | 0.05 to 5 | 0.05 to 5 | 0.05 to 5 | < 0.05 |  |  |  |  |  | 
